Laboratory results from ChEMBL document CHEMBL1201862, “PubChem BioAssay data set” (2004).
“And” between values parts separate entries of the source, which are not always exact repeats. Equal entries are not always repeated. The source made the active and inactive calls.

Assays:
Vero [1] = test: cells; format: functional, cell-based; details: Chlorocebus sabaeus
Vero [2] = test: cells; format: functional; details: Chlorocebus sabaeus
HeLa = test: viability loss in HeLa cells – cell-based, 24 h, cherry-picked samples, cytotoxicity control, dose response (AID 504726); format: functional; details: Homo sapiens;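 further: potency for cytotoxicity as loss of luminescence signal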
ORF 73 = ORF 73 (Human herpesvirus 8, UniProt O40947); test: KSHV LANA DNA-binding disruption – biochemical, fluorescence polarization, cherry-picked samples, dose response (AID 504725); set-up: species or system Human gammaherpesvirus 8;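 further: fluorescence polarization of a labeled DNA duplex reporting LANA DNA binding; potency is for inhibitors that block LANA binding to the DNA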
Chain of ORF 73 (O40947 whole entry): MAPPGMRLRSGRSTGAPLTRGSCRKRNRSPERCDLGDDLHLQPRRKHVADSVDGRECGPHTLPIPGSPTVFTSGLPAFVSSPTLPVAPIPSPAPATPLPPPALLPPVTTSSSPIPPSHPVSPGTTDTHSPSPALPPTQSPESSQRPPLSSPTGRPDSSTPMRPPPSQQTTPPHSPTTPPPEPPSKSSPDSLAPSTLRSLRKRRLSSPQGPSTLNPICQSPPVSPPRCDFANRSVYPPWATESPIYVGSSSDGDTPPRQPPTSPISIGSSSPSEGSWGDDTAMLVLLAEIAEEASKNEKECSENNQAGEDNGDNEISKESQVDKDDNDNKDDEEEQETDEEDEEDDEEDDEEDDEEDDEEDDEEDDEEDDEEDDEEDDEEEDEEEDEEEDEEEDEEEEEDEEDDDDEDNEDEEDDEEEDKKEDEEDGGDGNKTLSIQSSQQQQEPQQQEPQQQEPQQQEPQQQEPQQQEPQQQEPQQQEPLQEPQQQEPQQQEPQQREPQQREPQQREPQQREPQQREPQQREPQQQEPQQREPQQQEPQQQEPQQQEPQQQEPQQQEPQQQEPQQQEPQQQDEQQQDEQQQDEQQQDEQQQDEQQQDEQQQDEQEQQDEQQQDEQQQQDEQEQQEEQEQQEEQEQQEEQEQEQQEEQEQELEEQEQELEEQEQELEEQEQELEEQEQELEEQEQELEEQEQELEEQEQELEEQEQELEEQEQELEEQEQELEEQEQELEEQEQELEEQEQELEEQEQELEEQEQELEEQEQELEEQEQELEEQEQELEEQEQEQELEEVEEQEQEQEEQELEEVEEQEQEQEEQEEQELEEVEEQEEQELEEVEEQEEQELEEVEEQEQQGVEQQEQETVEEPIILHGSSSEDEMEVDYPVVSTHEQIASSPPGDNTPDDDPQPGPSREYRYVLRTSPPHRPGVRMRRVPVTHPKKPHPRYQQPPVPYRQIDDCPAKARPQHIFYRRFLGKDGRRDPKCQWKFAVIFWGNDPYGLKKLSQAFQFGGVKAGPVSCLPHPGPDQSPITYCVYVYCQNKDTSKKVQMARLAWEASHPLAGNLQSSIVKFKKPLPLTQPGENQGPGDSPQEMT

Keap1/Nrf2 = Keap1/Nrf2 (Homo sapiens, UniProt Q14145); test: disruptors of Keap1 binding to Nrf2 peptide – biochemical, fluorescence polarization, cherry-picked samples, dose response (AID 588683)
Chain of Keap1/Nrf2 (Q16236 whole entry): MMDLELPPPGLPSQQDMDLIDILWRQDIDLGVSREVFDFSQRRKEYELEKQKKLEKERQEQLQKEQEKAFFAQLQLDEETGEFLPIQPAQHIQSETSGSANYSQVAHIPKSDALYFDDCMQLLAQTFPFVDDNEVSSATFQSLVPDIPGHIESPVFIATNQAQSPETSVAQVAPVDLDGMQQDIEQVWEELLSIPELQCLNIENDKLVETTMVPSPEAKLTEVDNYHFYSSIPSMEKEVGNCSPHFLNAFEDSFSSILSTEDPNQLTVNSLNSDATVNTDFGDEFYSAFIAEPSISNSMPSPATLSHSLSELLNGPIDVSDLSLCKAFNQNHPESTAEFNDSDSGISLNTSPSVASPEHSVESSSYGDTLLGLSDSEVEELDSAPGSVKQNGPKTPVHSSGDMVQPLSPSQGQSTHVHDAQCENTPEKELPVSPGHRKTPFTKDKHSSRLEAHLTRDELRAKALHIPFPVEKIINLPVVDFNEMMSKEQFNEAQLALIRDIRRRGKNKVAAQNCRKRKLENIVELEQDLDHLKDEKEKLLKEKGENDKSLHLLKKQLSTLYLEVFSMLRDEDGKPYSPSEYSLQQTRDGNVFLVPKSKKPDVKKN
Chain of Keap1/Nrf2 (Q14145 whole entry): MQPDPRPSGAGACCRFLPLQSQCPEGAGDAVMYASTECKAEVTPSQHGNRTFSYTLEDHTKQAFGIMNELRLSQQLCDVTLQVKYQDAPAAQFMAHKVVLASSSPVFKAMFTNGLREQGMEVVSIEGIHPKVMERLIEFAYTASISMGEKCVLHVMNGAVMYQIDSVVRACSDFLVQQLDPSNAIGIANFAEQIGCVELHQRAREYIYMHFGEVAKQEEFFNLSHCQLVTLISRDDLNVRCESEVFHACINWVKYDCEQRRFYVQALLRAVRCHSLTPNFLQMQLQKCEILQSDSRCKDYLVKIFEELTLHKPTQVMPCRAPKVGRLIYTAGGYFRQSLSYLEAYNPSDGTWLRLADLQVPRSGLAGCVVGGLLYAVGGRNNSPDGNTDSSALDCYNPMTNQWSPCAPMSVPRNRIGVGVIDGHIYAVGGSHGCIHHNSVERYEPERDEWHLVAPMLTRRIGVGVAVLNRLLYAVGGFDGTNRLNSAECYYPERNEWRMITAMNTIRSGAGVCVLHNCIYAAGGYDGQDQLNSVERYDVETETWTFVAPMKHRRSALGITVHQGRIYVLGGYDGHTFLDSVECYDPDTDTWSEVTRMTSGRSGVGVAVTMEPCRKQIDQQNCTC

[3] = biological target: T1, Corticotropin-releasing factor receptor 2/Corticotropin-releasing factor-binding protein (Homo sapiens, UniProt P24387+Q13324); test: activators of CRF receptor 2 with binding protein – uHTS hits, confirmation (AID 602473); format: functional; details: read-out: EC50_Mean
T1 sequence (Q13324 whole entry): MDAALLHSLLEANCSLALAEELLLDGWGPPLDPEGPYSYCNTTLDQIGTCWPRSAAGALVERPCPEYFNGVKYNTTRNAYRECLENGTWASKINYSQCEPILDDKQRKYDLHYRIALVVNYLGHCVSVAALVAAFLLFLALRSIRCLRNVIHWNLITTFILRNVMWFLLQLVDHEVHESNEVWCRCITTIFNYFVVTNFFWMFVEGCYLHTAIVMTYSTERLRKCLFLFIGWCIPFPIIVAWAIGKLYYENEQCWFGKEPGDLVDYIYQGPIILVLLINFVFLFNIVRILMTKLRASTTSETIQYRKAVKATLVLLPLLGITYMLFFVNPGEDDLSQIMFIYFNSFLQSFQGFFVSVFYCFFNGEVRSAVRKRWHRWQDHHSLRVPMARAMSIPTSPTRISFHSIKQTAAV
T1 sequence (P24387 whole entry): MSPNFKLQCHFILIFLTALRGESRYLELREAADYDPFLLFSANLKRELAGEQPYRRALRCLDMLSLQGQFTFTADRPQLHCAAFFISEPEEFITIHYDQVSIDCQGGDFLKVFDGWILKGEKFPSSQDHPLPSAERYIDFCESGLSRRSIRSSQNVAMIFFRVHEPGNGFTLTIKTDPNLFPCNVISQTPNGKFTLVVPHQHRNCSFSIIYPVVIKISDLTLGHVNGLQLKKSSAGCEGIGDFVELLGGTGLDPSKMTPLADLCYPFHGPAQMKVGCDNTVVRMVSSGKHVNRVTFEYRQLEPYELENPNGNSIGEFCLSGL

[4] = biological target: Eukaryotic translation initiation factor 4E (Mus musculus, UniProt P63073); test: blockers of eIF4G binding by eIF4E – biochemical, TR-FRET, dose response (AID 855); format: functional;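 further: potency for disrupting eIF4E binding to eIF4GI seen as loss of FRET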
Chain of Eukaryotic translation initiation factor 4E (P63073 whole entry): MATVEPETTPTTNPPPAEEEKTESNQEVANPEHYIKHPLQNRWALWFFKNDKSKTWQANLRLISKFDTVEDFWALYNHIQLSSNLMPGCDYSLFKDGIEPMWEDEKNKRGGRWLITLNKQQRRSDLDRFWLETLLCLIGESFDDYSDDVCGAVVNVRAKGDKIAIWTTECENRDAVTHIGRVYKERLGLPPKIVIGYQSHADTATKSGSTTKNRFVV

[5] = biological target: Dual specificity protein kinase CLK1 (Homo sapiens, UniProt P49759); test: inhibition of human CLK1 activity – biochemical, cherry-picked samples, selectivity assay for Dyrk1A inhibitor project, dose response (AID 588811)
Chain of Dual specificity protein kinase CLK1 (P49759 whole entry): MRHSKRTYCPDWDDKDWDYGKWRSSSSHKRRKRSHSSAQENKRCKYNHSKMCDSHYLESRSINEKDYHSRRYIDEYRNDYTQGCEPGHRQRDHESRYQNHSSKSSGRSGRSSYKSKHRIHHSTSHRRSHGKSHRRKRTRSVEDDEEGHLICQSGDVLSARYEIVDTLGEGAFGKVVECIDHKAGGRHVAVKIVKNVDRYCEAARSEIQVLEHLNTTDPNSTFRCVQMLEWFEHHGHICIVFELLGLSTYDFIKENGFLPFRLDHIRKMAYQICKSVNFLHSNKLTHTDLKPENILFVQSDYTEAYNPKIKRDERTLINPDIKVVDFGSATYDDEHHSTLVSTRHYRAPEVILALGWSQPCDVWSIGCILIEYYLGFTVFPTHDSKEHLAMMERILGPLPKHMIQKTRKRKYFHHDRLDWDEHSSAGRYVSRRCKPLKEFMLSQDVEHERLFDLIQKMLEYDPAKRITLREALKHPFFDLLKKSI

HEK293 [6] = test: HEK293T cell viability loss, resazurin readout – resazurin fluorescence, cytotoxicity control for NF-kB activator project, SAR follow-up (AID 493251); format: functional, cell-based; details: Homo sapiens
Jurkat [7] = test: SAR Analysis of small molecule inhibitors of T-cell specific antigen receptor-induced NF-kB activation in a Jurkat cell line using a luminescence assay - Set 2. [Related pubchem assays (depositor defined):AID435003, AID435012, AID465]; format: functional, cell-based; details: Homo sapiens
HEK293 [8] = test: SAR Analysis of small molecule inhibitors of T-cell specific antigen receptor-induced NF-kB activation in a HEK-293T cell line using a luminescence assay - Set 2. [Related pubchem assays (depositor defined):AID435003, AID435012, AID489026]; format: functional, cell-based; details: Homo sapiens
Escherichia coli [9] = test: microbe, parasite or virus in culture
Escherichia coli [10] = test: microbe, parasite or virus in culture; remark: listed apart in the source
[11] = reduction of Shn3 3'UTR-driven luciferase in osteoblasts – cell-based, Clone20 osteoblasts, firefly luciferase, cherry-picked, dose response (AID 624132); format: functional;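 further: firefly luciferase luminescence from reporter carrying the Shn3 3'UTR in osteoblasts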
[12] = loss of viability in HepG2 cells – cell-based, CellTiter-Glo, cherry-picked, cytotoxicity control for Shn3 inhibitor project, dose response (AID 624134); format: functional
[13] = non-specific 3'UTR reporter inhibition in Clone20-Shn3RL – cell-based, Renilla luciferase, cherry-picked, counter-screen for Shn3 inhibitor project, dose response (AID 624133); format: functional
[14] = Fluorescence-based cell-based high throughput dose response assay for inhibitors of the interaction of nucleotide-binding oligomerization domain containing 2 (NOD2) and the receptor-interacting serine-threonine kinase 2 (RIPK2).; format: functional; details: Homo sapiens
Beta Lactamase = Beta Lactamase (Pseudomonas aeruginosa, UniProt Q932Y6); test: BLA reporter interference, concentration series – BLA reporter cells, FRET fluorescence, artefact control for NOD2-RIPK2 interaction inhibitor project, dose response (AID 651552); format: functional, cell-based
Chain of Beta Lactamase (Q932Y6 whole entry): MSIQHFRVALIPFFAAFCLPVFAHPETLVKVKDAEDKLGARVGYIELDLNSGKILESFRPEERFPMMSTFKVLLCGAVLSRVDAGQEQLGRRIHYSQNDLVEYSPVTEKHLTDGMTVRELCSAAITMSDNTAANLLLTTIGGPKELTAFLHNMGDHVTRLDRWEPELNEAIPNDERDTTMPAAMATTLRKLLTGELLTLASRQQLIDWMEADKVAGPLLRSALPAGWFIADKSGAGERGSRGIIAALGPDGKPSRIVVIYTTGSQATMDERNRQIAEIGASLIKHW

[15] = luciferase reporter signal suppression in cells – H4 neuroglioma cells, luminescence, dose response (AID 1990); format: functional, cell-based
[16] = luciferase reporter signal reduction – luminescence, H4-C neuroglioblastoma cells, dose response (AID 2458); format: functional, cell-based;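 further: H4 neuroglioblastoma cells stably carrying a luciferase reporter gene fusion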
[17] = biological target: Luciferin 4-monooxygenase (Photinus pyralis, UniProt P08659); test: Counter Screen for Luciferase-based Assay Positives. [Related pubchem assays: 620, 618, 411 ]
Chain of Luciferin 4-monooxygenase (P08659 whole entry): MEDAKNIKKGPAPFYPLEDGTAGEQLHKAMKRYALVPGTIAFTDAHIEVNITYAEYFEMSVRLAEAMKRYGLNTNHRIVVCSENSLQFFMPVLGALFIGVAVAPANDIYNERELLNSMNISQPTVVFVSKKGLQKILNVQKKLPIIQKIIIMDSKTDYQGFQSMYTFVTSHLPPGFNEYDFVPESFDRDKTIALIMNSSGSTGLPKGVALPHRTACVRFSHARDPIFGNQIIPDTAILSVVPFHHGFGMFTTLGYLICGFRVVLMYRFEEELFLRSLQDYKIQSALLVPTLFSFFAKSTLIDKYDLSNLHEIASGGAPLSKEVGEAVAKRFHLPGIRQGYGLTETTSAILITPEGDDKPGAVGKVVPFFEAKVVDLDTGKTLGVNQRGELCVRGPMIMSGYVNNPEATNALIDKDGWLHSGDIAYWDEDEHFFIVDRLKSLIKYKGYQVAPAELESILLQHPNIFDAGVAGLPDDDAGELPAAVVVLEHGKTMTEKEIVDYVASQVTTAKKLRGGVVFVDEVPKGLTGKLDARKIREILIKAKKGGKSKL

[18] = biological target: Glyceraldehyde-3-phosphate dehydrogenase (Homo sapiens, UniProt P04406)
cells = format: functional, cell-based
[19] = Luminescence Cell-Based Dose Response HTS to Identify Inhibitors of 5'UTR Stem-Loop Driven Prion Protein mRNA Translation in H4 Neuroglioblastoma Cells. [Related pubchem assays: 1827 (Project Summary), 1813 (Primary HTS)]; format: functional
[20] = alpha-synuclein stem-loop luciferase translation blockers – H4 neuroglioma cells, luminescence, confirmation (AID 1988); format: functional, cell-based
HT-1080 = test: HT1080 cell viability loss – fluorescence readout (AID 620); format: functional, cell-based; details: Homo sapiens
[21] = alpha-synuclein stem-loop translation blockers – luminescence, H4 neuroglioblastoma cells, dose confirmation, confirmation (AID 2454); format: functional, cell-based;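 further: H4 neuroglioblastoma cells carrying an alpha-synuclein 5'UTR luciferase reporter; potency for inhibition of the luciferase signal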
[22] = biological target: Voltage-dependent T-type calcium channel subunit alpha-1H (Homo sapiens, UniProt O95180); format: functional;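 further: channel activity triggered by adding a high calcium stimulation buffer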
Jurkat [23] = test: blockers of NF-kB activation in T cells – Jurkat, luciferase reporter, luminescence, B- and T-cell, dose response (AID 489004); format: functional, cell-based; details: Homo sapiens;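 further: NF-kB luciferase reporter Jurkat cells stimulated with PMA plus ionomycin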
[24] = HEK-293T viability loss, compound-treated – cell-based, uHTS hits, cytotoxicity control for B/T-cell NF-kB inhibitor project, dose response (AID 489019); format: functional;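 further: IC50 reflects cytotoxicity as loss of cell viability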
[25] = blockers of HIV-1 envelope-mediated cell-cell fusion – cherry-pick, dose response (AID 652057); format: functional, cell-based
[26] = blockers of HIV-1 ZM109 envelope-driven cell-cell fusion – HeLa effector, CEM target cells, luciferase, cherry-pick, dose response (AID 652058); format: functional, cell-based;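 further: luciferase signal from HIV-1 Env mediated cell-cell fusion of effector and target cells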
[27] = off-target signal loss in HeLa-CEM21 co-culture – HeLa F-luc CTL cells, cherry-picked, counter-screen for HIV-1 Env fusion inhibitor project, dose response (AID 652040); format: functional, cell-based;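 further: potency for signal decrease marking cytotoxic or nonspecific inhibition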
[28] = HIV-1 AD8 envelope cell-cell fusion blockers – cherry-pick, dose response (AID 652062); format: functional, cell-based;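 further: luciferase signal from cell-cell fusion driven by HIV-1 clade B AD8 Env; potency is for inhibitors of fusion seen as a drop in luminescence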
[29] = Luminescence Cell-Based Dose Retest to Confirm Inhibitors of Cancer Stem Cells. [Related pubchem assays (depositor defined):AID2717, AID2721]; format: functional; details: Homo sapiens
Paired box protein Pax-8 = Paired box protein Pax-8 (Homo sapiens, UniProt Q06710); test: PAX8 transcriptional activity inhibition in RMG-I – RMG-I cells, luciferase, cherry-pick, dose response (AID 687027); format: functional, cell-based;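 further: luciferase reporter driven by Pax8 target thyroperoxidase promoter measured by SteadyGlo luminescence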
Chain of Paired box protein Pax-8 (Q06710 whole entry): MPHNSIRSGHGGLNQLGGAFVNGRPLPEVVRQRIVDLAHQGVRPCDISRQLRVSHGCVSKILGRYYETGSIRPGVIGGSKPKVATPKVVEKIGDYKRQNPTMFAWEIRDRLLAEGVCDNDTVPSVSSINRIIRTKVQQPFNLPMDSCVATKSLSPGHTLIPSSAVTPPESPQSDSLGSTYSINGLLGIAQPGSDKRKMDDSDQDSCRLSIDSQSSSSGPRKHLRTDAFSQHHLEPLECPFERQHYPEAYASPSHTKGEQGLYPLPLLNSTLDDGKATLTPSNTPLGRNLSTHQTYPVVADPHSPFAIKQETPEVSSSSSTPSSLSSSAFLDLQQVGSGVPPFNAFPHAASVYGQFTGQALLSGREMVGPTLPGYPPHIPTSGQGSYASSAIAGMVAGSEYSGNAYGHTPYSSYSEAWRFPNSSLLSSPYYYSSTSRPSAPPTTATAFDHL

[30] = NIH-3T3 fibroblast cytotoxicity, dose response, cytotoxicity control, cell-based, fluorescence, Alamar Blue, secondary assay (AID 2327); format: functional;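 further: NIH-3T3 mouse fibroblasts cultured with fluconazole at 8 µg/mL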
[31] = fluconazole-exposed Candida albicans growth modulators – fluorescence, retest, confirmation (AID 2467); format: functional, cell-based
[32] = biological target: Serine/threonine-protein phosphatase (Candida dubliniensis (strain CD36 / CBS 7987 / NCPF 3949 / NRRLY-17841) (Yeast), UniProt B9W6M3); test: blockers of CaCl2-induced CDRE-lacZ signaling – S. cerevisiae, luminescence, secondary, dose response (AID 2388); format: functional, cell-based;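 further: yeast reporter cells carrying a calcineurin-responsive lacZ construct stimulated with calcium chloride; luminescent beta-galactosidase reporter signal in whole cells rather than isolated phosphatase activity; potency for inhibition where a drop in reporter signal means calcineurin blockade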
[33] = biological target: ATP-dependent molecular chaperone HSP82 (Candida albicans (strain WO-1) (Yeast), UniProt C4YTQ8); test: steroid-induced GRE reporter decrease in yeast – S. cerevisiae, luminescence, Hsp90 inhibitor project, dose response (AID 2400); format: functional, cell-based;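 further: beta-galactosidase luminescence from glucocorticoid response element reporter as proxy for Hsp90 function; inhibitor potency where signal loss means Hsp90 inhibition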
Chain of ATP-dependent molecular chaperone HSP82 (C4YTQ8 whole entry): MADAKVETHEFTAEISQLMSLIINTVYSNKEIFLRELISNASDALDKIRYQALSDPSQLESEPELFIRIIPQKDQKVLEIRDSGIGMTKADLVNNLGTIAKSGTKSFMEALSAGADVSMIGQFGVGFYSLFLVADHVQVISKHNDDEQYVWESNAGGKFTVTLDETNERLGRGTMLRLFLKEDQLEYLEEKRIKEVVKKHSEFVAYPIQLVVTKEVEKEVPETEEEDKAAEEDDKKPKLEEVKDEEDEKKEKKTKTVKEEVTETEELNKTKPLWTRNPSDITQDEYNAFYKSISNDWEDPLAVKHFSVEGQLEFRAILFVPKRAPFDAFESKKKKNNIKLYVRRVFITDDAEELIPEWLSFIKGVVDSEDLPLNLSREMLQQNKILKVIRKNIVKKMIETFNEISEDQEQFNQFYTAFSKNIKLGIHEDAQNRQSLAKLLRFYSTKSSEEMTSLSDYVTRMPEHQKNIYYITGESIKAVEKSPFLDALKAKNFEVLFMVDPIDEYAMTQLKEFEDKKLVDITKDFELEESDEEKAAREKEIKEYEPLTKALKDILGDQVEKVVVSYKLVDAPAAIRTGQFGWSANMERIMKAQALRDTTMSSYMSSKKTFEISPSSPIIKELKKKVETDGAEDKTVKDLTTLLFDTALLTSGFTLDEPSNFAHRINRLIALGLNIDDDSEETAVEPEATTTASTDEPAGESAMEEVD

O=C(c1cccs1)N(Cc1nc(O)c2c3c(sc2n1)CCCC3)C1CCCC1
IC50 (Vero [1]): 13.4 µM (active)
CC50 (Vero [2]): > 25 µM (active)

COc1ccc2nc3ccccc3[n+]([O-])c2c1
AC50 (HeLa): 119 µM (active)
AC50 (ORF 73): 30.8 µM (active)
AC50 (Keap1/Nrf2): 8.81 µM (active)
EC50 [3]: 18.1 µM (active)

CCCN(CCC)S(=O)(=O)c1ccc(C(=O)OCCN2C(=O)c3cccc4c(N5CCOCC5)ccc(c34)C2=O)cc1
AC50 (HeLa): 57.8 µM (active)
AC50 (ORF 73): 21.4 µM (active)
IC50 [4]: > 64 µM (inactive)
AC50 (Keap1/Nrf2): 7.75 µM (active)
EC50 [3]: 6.32 µM (active)

CCOC(=O)c1ccc(-c2ccc3ncnc(NCc4ccc(C)o4)c3c2)o1
AC50 [5]: 2.72 nM (active) and 93.6 nM (active)

Cc1ccc2nsnc2c1NC(=O)c1ccc([N+](=O)[O-])o1
IC50 (HEK293 [6]): > 80 µM (inactive)
IC50 (Jurkat [7]): 22.7 µM (inactive)
IC50 (HEK293 [8]): 37.9 µM (inactive)

CC(C)N1CCC(N2CCN(C3CCCCC3)CC2CCO)CC1 (centres undefined)
AC50 (Escherichia coli [9]): 97 µM (active)
AC50 (Escherichia coli [10]): 16.8 µM (active)

O=C(/C=C1\C(=O)Nc2ccccc21)/C=C1\C(=O)Nc2ccccc21
IC50 (Vero [1]): > 25 µM (active)
CC50 (Vero [2]): 20 µM (active)
AC50 [11]: 9.5 µM (active)
AC50 [12]: 64.7 µM (active)
AC50 [13]: 11.7 µM (active)
IC50 [14]: 1.55 µM (active)
IC50 (Beta Lactamase): 28.6 µM (inactive)

CC(C)c1ccc(C(NC(=O)C2CCCCC2)c2ccc3cccnc3c2O)cc1 (centres undefined)
IC50 (HEK293 [6]): 44.9 µM (inactive)
IC50 (Jurkat [7]): 2.94 µM (active)
IC50 (HEK293 [8]): 4.61 µM (active)

COC(=O)CCn1nnc(-c2ccc(C(C)C)cc2)n1
EC50 [15]: < 0.1 µM (active)
EC50 [16]: 0.251 µM (active)
EC50 [17]: 2.39 µM (active)
IC50 [18]: > 100 µM (not active)
EC50 (cells): 0.477 µM (active)
EC50 [19]: < 0.1 µM (active)
EC50 [20]: < 0.1 µM (active)
EC50 (HT-1080): > 50 µM (not active)
EC50 [21]: 0.373 µM (active)
EC50 [22]: 16.2 µM (active)
IC50 (Jurkat [23]): < 0.16 µM (active)
IC50 [24]: > 80 µM (inactive)
AC50 [25]: < 0.26 µM (active)
AC50 [26]: < 0.26 µM (active)
AC50 [27]: < 0.26 µM (active)
AC50 [28]: 0.379 µM (active)

C[C@@H]1O[C@@H](O[C@@H]2C=C3CCC4C(CC[C@]5(C)[C@@H](c6ccc(=O)oc6)CC[C@]45O)[C@@]3(C)CC2)[C@H](O)[C@H](O)[C@H]1O (some centres undefined)
AC50 [29]: < 0.16 µM (active)
IC50 (Jurkat [23]): 1.66 µM (active)
IC50 [24]: > 80 µM (inactive)
CC50 (Vero [2]): < 0.05 µM (active)
AC50 (Paired box protein Pax-8): < 0.26 µM (active)

COc1ccc(NC(=O)C/C(C)=N/NC(=O)C(=O)Nc2cccc(Cl)c2C)c(OC)c1
AC50 (Escherichia coli [9]): 16.3 µM (active)
AC50 (Escherichia coli [10]): 51.6 µM (active)

O=C(CC(=O)c1cccc([N+](=O)[O-])c1)Nc1ccccc1Cl
EC50 [30]: > 150 µM (inactive)
EC50 [31]: 0.524 µM (active)
EC50 [32]: > 180 µM (inactive)
EC50 [33]: > 160 µM (inactive)
